Measurements as given in patent publication US9440933B2, “Azole derivative, method for producing same, intermediate compound, and agricultural or horticultural chemical agent and industrial material protecting agent” (KUREHA CORPORATION, priority 2011, dated 2016).

Assays:
[1] = system: wheat leaf blight-causing microbe; test: Antimicrobial activity to wheat leaf blight-causing microbe (PDA plate, hyphal expansion inhibition); assay type: cell-based, Septoria tritici; details: Concentration 50 mg/L, PDA medium, 25° C., 14 days; for inhibition at 50 µg/mL: 336 h, read-out: Growth inhibition
Protocol: In this Test Example, antimicrobial activity of the inventive compounds to wheat leaf blight-causing microbe was determined and compared with that of the comparative compound (1).

[2] = system: wheat leaf rust-causing microbe; test: Wheat leaf rust-controlling activity (foliar spray, pot test); assay type: in vivo, Puccinia recondita; details: Concentration 25 g/ha; wettable powder sprayed on wheat (Norin No. 61), 9 to 14 days after inoculation
[3] = system: Wheat fusarium blight-causing microbe (Fusarium graminearum); assay type: cell-based; details: 50 mg/L
[4] = system: Rice blast-causing microbe (Pyricularia oryzae); assay type: cell-based; details: 50 mg/L
[5] = system: Wheat glume blotch-causing microbe (Phaeosphaeria nodorum); test: Antimicrobial activity to various pathogenic microbes: P.n; details: 50 mg/L
Protocol: (§1) An inventive compound was dissolved in dimethylsulfoxide 2 ml. The solution 0.6 ml was added to a PDA medium (potato-dextrose-agar medium) 60 ml at around 60° C.
(§2) A flat plate containing a test microbe (wheat leaf blight-causing microbe) cultured separately was punched into pieces with a cork borer having a diameter of 4 mm and the circular plate obtained was placed on the flat plate media containing the chemical described above. The plates were cultured at 25° C. for 14 days after inoculation and the diameter of the microbial colony was determined. Hyphal expansion-inhibiting rate was calculated according to the following equation: R=100(dc−dt)/dc (wherein, R: hyphal expansion-inhibiting rate (%), dc: diameter of microbial colony on non-treated flat plate, dt: diameter of microbial colony on chemically-treated flat plate).
(§3) In this Test Example, the antimicrobial activity of the inventive compounds to various plant disease-causing fungi and industrial material-eroding microorganisms was studied by the method described in Example 1.
(§4) The results thus obtained were evaluated in 5 stages according to the criteria below:
Wheat glume blotch-causing microbe (Phaeosphaeria nodorum) P.n

[6] = system: Wheat eye spot-causing microbe (Pseudocercoporella herpotrichoides); test: Antimicrobial activity to various pathogenic microbes: P.h; details: 50 mg/L
Protocol: as §1
(§5) The plates were cultured at 25° C. for 14 days after inoculation and the diameter of the microbial colony was determined. Hyphal expansion-inhibiting rate was calculated according to the following equation: R=100(dc−dt)/dc (wherein, R: hyphal expansion-inhibiting rate (%), dc: diameter of microbial colony on non-treated flat plate, dt: diameter of microbial colony on chemically-treated flat plate).
as §4
Wheat eye spot-causing microbe (Pseudocercoporella herpotrichoides) P.h

[7] = system: Barley loose smut-causing microbe (Ustilago nuda); test: Antimicrobial activity to various pathogenic microbes: U.n; details: 50 mg/L
Protocol: as §1, §5, §4
Barley loose smut-causing microbe (Ustilago nuda) U.n

[8] = system: Rice bakanae disease-causing microbe (Gibberella fujikuroi); test: Antimicrobial activity to various pathogenic microbes: G.f; details: 50 mg/L
Protocol: as §1, §2, §4

[9] = system: Apple alternaria blotch-causing microbe (Alternaria alternata); test: Antimicrobial activity to various pathogenic microbes: A.m; details: 50 mg/L
Protocol: as §1, §2, §3, §4
Apple alternaria blotch-causing microbe (Alternaria alternata) A.m

[10] = system: Sclerotinia rot-causing microbe (Sclerotinia sclerotiorum); test: Antimicrobial activity to various pathogenic microbes: S.s; details: 50 mg/L
Protocol: as §1, §2, §4
Sclerotinia rot-causing microbe (Sclerotinia sclerotiorum) S.s

[11] = system: Gray mold-causing microbe (Botrytis cinerea); test: Antimicrobial activity to various pathogenic microbes: B.c; details: 50 mg/L
Protocol: as §1, §2, §3, §4
Gray mold-causing microbe (Botrytis cinerea) B.c

[12] = system: Cucumber Fusarium wilt-causing microbe (Fusarium oxysporum); test: Antimicrobial activity to various pathogenic microbes: F.c; details: 50 mg/L
Protocol: as §1, §2, §4

[13] = system: Barley scald-causing microbe (Rhynchosporium secalis); test: Antimicrobial activity to various pathogenic microbes: R.sec; details: 50 mg/L
Protocol: as §1, §2, §3, §4
Barley scald-causing microbe (Rhynchosporium secalis) R.sec

[14] = system: wheat powdery mildew-causing microbes; test: Controlling activity to wheat powdery mildew of seed treatment (pot test); assay type: in vivo, Erysiphe graminis f. sp tritici; details: 2 mg in DMSO applied to wheat seeds 1 g, 14 to 28 days after seeding
Protocol: Controlling activity to wheat powdery mildew was examined in a pot test. Each of the inventive compounds […]-53, and a comparative compound (1) was weighed in an amount of 2 mg and dissolved in DMSO (18 μl). The solution thus prepared was applied to wheat seeds 1 g in a vial, 8 wheat seeds were seeded in a 80 cm^2 pot. The wheat was grown, as water was supplied from blow, in a greenhouse where wheat powdery mildew-causing microbes are present abundantly. The incidence rate was determined and the controlling rate and additionally the controlling index calculated 14 to 28 days after seeding. The controlling rate was calculated and the wheat powdery mildew controlling index determined according to the following equation: Controlling rate=(1-Incidence rate in treated region/Incidence rate in non-treated region)×100(%) [table]

[15] = system: wheat; test: Damage to wheat (growth inhibition) by seed treatment (pot test); details: 2 mg in DMSO applied to wheat seeds 1 g, 14 to 28 days after seeding, larger index = smaller damage

COC(=O)[C@@]1(CCl)CC[C@H](Cc2ccc(F)cc2)[C@@]1(O)Cn1cncn1 (racemic) [Compound I-78, methyl-(1RS, 2SR,3RS)-3-(4-fluorobenzyl)-1-chloromethyl-2-hydroxy-2-(1H-1,2,4-triazol-1-ylmethyl)cyclopentanecarboxylate]
inhibition at 50 µg/mL [1]: > 80%
Controlling index [2]: 5 (81 to 100)
Growth inhibition (hyphal expansion-inhibiting rate grade) F.g [3]: 5 (hyphal expansion-inhibiting rate: 80% or more)
Growth inhibition (hyphal expansion-inhibiting rate grade) P.o [4]: 5 (hyphal expansion-inhibiting rate: 80% or more)
Growth inhibition (hyphal expansion-inhibiting rate grade) P.n [5]: 5 (hyphal expansion-inhibiting rate: 80% or more)
Growth inhibition (hyphal expansion-inhibiting rate grade) P.h [6]: 5 (hyphal expansion-inhibiting rate: 80% or more)
Growth inhibition (hyphal expansion-inhibiting rate grade) U.n [7]: 5 (hyphal expansion-inhibiting rate: 80% or more)
Growth inhibition (hyphal expansion-inhibiting rate grade) G.f [8]: 5 (hyphal expansion-inhibiting rate: 80% or more)
Growth inhibition (hyphal expansion-inhibiting rate grade) A.m [9]: 5 (hyphal expansion-inhibiting rate: 80% or more)
Growth inhibition (hyphal expansion-inhibiting rate grade) S.s [10]: 5 (hyphal expansion-inhibiting rate: 80% or more)
Growth inhibition (hyphal expansion-inhibiting rate grade) B.c [11]: 5 (hyphal expansion-inhibiting rate: 80% or more)
Growth inhibition (hyphal expansion-inhibiting rate grade) F.c [12]: 5 (hyphal expansion-inhibiting rate: 80% or more)
Growth inhibition (hyphal expansion-inhibiting rate grade) R.sec [13]: 5 (hyphal expansion-inhibiting rate: 80% or more)

C=CCOC(=O)[C@]1(C)CC[C@@H](Cc2ccc(Cl)cc2)[C@]1(O)Cn1cncn1 (racemic) [Compound I-4, allyl-(1RS,2RS,3SR)-3-(4-chlorobenzyl)-2-hydroxy-1-methyl-2-(1H-1,2,4-triazol-1-ylmethyl)cyclopentanecarboxylate]
inhibition at 50 µg/mL [1]: > 80%
Controlling index [2]: 5 (81 to 100)
Growth inhibition (hyphal expansion-inhibiting rate grade) F.g [3]: 5 (hyphal expansion-inhibiting rate: 80% or more)
Growth inhibition (hyphal expansion-inhibiting rate grade) P.o [4]: 5 (hyphal expansion-inhibiting rate: 80% or more)
Growth inhibition (hyphal expansion-inhibiting rate grade) P.n [5]: 5 (hyphal expansion-inhibiting rate: 80% or more)
Growth inhibition (hyphal expansion-inhibiting rate grade) P.h [6]: 5 (hyphal expansion-inhibiting rate: 80% or more)
Growth inhibition (hyphal expansion-inhibiting rate grade) U.n [7]: 5 (hyphal expansion-inhibiting rate: 80% or more)
Growth inhibition (hyphal expansion-inhibiting rate grade) G.f [8]: 5 (hyphal expansion-inhibiting rate: 80% or more)
Growth inhibition (hyphal expansion-inhibiting rate grade) A.m [9]: 5 (hyphal expansion-inhibiting rate: 80% or more)
Growth inhibition (hyphal expansion-inhibiting rate grade) S.s [10]: 5 (hyphal expansion-inhibiting rate: 80% or more)
Growth inhibition (hyphal expansion-inhibiting rate grade) B.c [11]: 5 (hyphal expansion-inhibiting rate: 80% or more)
Growth inhibition (hyphal expansion-inhibiting rate grade) F.c [12]: 5 (hyphal expansion-inhibiting rate: 80% or more)
Growth inhibition (hyphal expansion-inhibiting rate grade) R.sec [13]: 5 (hyphal expansion-inhibiting rate: 80% or more)

COC(=O)[C@]1(C)CC[C@H](Cc2ccc(Cl)cc2)[C@@]1(O)Cn1cncn1 (racemic) [Compound I-132, methyl-(1RS,2SR,3RS)-3-(4-chlorobenzyl)-2-hydroxy-1-methyl-2-(1H-1,2,4-triazol-1-ylmethyl)cyclopentanecarboxylate]
inhibition at 50 µg/mL [1]: > 80%
Controlling index [2]: 5 (81 to 100)
Growth inhibition (hyphal expansion-inhibiting rate grade) F.g [3]: 5 (hyphal expansion-inhibiting rate: 80% or more)
Growth inhibition (hyphal expansion-inhibiting rate grade) P.o [4]: 5 (hyphal expansion-inhibiting rate: 80% or more)
Controlling index Wheat powdery mildew [14]: 5 (Controlling rate: 40 or more)
Growth inhibition (hyphal expansion-inhibiting rate grade) P.n [5]: 5 (hyphal expansion-inhibiting rate: 80% or more)
Growth inhibition (hyphal expansion-inhibiting rate grade) P.h [6]: 5 (hyphal expansion-inhibiting rate: 80% or more)
Growth inhibition (hyphal expansion-inhibiting rate grade) U.n [7]: 5 (hyphal expansion-inhibiting rate: 80% or more)
Growth inhibition (hyphal expansion-inhibiting rate grade) G.f [8]: 5 (hyphal expansion-inhibiting rate: 80% or more)
Growth inhibition (hyphal expansion-inhibiting rate grade) A.m [9]: 5 (hyphal expansion-inhibiting rate: 80% or more)
Growth inhibition (hyphal expansion-inhibiting rate grade) S.s [10]: 5 (hyphal expansion-inhibiting rate: 80% or more)
Growth inhibition (hyphal expansion-inhibiting rate grade) B.c [11]: 5 (hyphal expansion-inhibiting rate: 80% or more)
Growth inhibition (hyphal expansion-inhibiting rate grade) F.c [12]: 5 (hyphal expansion-inhibiting rate: 80% or more)
Growth inhibition (hyphal expansion-inhibiting rate grade) R.sec [13]: 5 (hyphal expansion-inhibiting rate: 80% or more)
Damage index Growth inhibition [15]: 5

C#CCOC(=O)[C@]1(C)CC[C@H](Cc2ccc(Cl)cc2)[C@@]1(O)Cn1cncn1 (racemic) [Compound I-135, 2-propynyl-(1RS,2SR,3RS)-3-(4-chlorobenzyl)-2-hydroxy-1-methyl-2-(1H-1,2,4-triazol-1-ylmethyl)cyclopentanecarboxylate]
Growth inhibition [1]: 5 (hyphal expansion-inhibiting rate: 80% or more)
Controlling index [2]: 5 (81 to 100)
Growth inhibition (hyphal expansion-inhibiting rate grade) F.g [3]: 5 (hyphal expansion-inhibiting rate: 80% or more)
Growth inhibition (hyphal expansion-inhibiting rate grade) P.o [4]: 5 (hyphal expansion-inhibiting rate: 80% or more)
Growth inhibition (hyphal expansion-inhibiting rate grade) P.n [5]: 5 (hyphal expansion-inhibiting rate: 80% or more)
Growth inhibition (hyphal expansion-inhibiting rate grade) P.h [6]: 5 (hyphal expansion-inhibiting rate: 80% or more)
Growth inhibition (hyphal expansion-inhibiting rate grade) U.n [7]: 5 (hyphal expansion-inhibiting rate: 80% or more)
Growth inhibition (hyphal expansion-inhibiting rate grade) G.f [8]: 5 (hyphal expansion-inhibiting rate: 80% or more)
Growth inhibition (hyphal expansion-inhibiting rate grade) A.m [9]: 5 (hyphal expansion-inhibiting rate: 80% or more)
Growth inhibition (hyphal expansion-inhibiting rate grade) S.s [10]: 5 (hyphal expansion-inhibiting rate: 80% or more)
Growth inhibition (hyphal expansion-inhibiting rate grade) B.c [11]: 5 (hyphal expansion-inhibiting rate: 80% or more)
Growth inhibition (hyphal expansion-inhibiting rate grade) F.c [12]: 5 (hyphal expansion-inhibiting rate: 80% or more)
Growth inhibition (hyphal expansion-inhibiting rate grade) R.sec [13]: 5 (hyphal expansion-inhibiting rate: 80% or more)

C#CCOC(=O)[C@]1(C)CC[C@@H](Cc2ccc(Cl)cc2)[C@]1(O)Cn1cncn1 (racemic) [Compound I-5, 2-propynyl-(1RS,2RS,3SR)-3-(4-chlorobenzyl)-2-hydroxy-1-methyl-2-(1H-1,2,4-triazol-1-ylmethyl)cyclopentanecarboxylate]
Growth inhibition [1]: 5 (hyphal expansion-inhibiting rate: 80% or more)
Controlling index [2]: 5 (81 to 100)
Growth inhibition (hyphal expansion-inhibiting rate grade) F.g [3]: 5 (hyphal expansion-inhibiting rate: 80% or more)
Growth inhibition (hyphal expansion-inhibiting rate grade) P.o [4]: 5 (hyphal expansion-inhibiting rate: 80% or more)
Controlling index Wheat powdery mildew [14]: 5 (Controlling rate: 40 or more)
Growth inhibition (hyphal expansion-inhibiting rate grade) P.n [5]: 5 (hyphal expansion-inhibiting rate: 80% or more)
Growth inhibition (hyphal expansion-inhibiting rate grade) P.h [6]: 5 (hyphal expansion-inhibiting rate: 80% or more)
Growth inhibition (hyphal expansion-inhibiting rate grade) U.n [7]: 5 (hyphal expansion-inhibiting rate: 80% or more)
Growth inhibition (hyphal expansion-inhibiting rate grade) G.f [8]: 5 (hyphal expansion-inhibiting rate: 80% or more)
Growth inhibition (hyphal expansion-inhibiting rate grade) A.m [9]: 5 (hyphal expansion-inhibiting rate: 80% or more)
Growth inhibition (hyphal expansion-inhibiting rate grade) S.s [10]: 5 (hyphal expansion-inhibiting rate: 80% or more)
Growth inhibition (hyphal expansion-inhibiting rate grade) B.c [11]: 5 (hyphal expansion-inhibiting rate: 80% or more)
Growth inhibition (hyphal expansion-inhibiting rate grade) F.c [12]: 5 (hyphal expansion-inhibiting rate: 80% or more)
Growth inhibition (hyphal expansion-inhibiting rate grade) R.sec [13]: 5 (hyphal expansion-inhibiting rate: 80% or more)
Damage index Growth inhibition [15]: 1 (60% or more and less than 80%)
